Results as given in PMC4421842 (Nature Communications, 2015).
Values after ≈ are worked out from the molar mass of the structure shown.

Legend:
[1] = system: FQR S. aureus (NRS3, FQR); assay: MIC, microdilution broth assay, FQR MRSA NRS3; type: cell-based; conditions: NRS3, S84L GyrA and S80F ParC, three independent replicates
[2] = system: normal (that is, non-cancerous) cell lines; parameters: method as in PMID 10993200; conditions: previously published data; cited from earlier work
[3] = biological target: T1, S83L E. coli DNA gyrase (Escherichia coli, UniProt P0AES4+P0AES6, S83L); type: biochemical; conditions: DNA cleavage assay
T1 construct: His tag (pTRCHisA vector; purified on Ni-NTA); made in house; host or cells: E. coli One Shot BL21 Star (DE3)

[4] = system: human erythrocytes; assay: In-vitro haemolysis assay; type: cell-based; conditions: human red blood cells, 2 h at 37°C, 160 µg mL-1 or highest concentration solubility allowed
Description: Haemolysis assays were performed as previously described. Briefly, assays were performed using human erythrocytes within 3 days of receipt. One millilitre of human blood purchased from Bioreclamation, Inc. (Hicksville, NY) was centrifuged (10,000 × g, 2 min). The pellet was washed three times with sterile saline (0.9% NaCl in water) by repeated gentle suspension and centrifugation. The pellet was resuspended in RBC buffer (10 mM Na2HPO4, 150 mM NaCl, 1 mM MgCl2 pH 7.4). To evaluate haemolytic activity of DNM and derivatives, 1 μl either 3.2 mg ml^−1 DMSO stock (or the most concentrated stock of the compound available if not soluble at 3.2 mg ml^−1 in DMSO) was transferred to 0.5 ml Eppendorf tubes containing 19 μl RBC buffer. Negative control tubes contained 1 μl DMSO and 19 μl RBC buffer, and positive control tubes contained 1 μl DMSO and 19 μl sterile deionized water. A suspension of washed erythrocytes (10 μl) was added to each tubes and samples were incubated at 37 °C for 2 h. Samples were centrifuged at 10,000 × g for 2 min and the supernatants from each sample (25 μl) were transferred to a clear, sterile 384-well plate. The absorbance of these supernatants was measured at 540 nm using a SpectraMaxPlus384 absorbance plate reader (Molecular Devices). Per cent haemolysis of each sample was calculated relative to the average absorbance values measured for positive controls.

[5] = biological target: T2, human topoisomerase II (Homo sapiens, UniProt P11388); assay: Human topoisomerase decatenation assay; type: biochemical; conditions: decatenation assay
T2 construct: purchased Inspiralis
Description: The decatenation assay was performed with the Human Topo II Decatenation Assay Kit (Inspiralis), according to the manufacturer's instructions, with minor modifications. First, a master mix was made containing 2 μl of 10 × assay buffer (500 mM Tris-HCl pH 7.5, 1250, mM NaCl, 100 mM MgCl2, 50 mM DTT, 1,000 μg ml^−1 albumin), 0.67 μl of 30 mM ATP, 1.34 μl of 0.1 ng μl^−1 kDNA, and 14.3 μl of nuclease-free water per sample is made. DMSO or 30 × compound is added to a 0.5-ml Eppendorf tube (0.67 μl per tube). The master mix is then added to each tube (18.3 μl per tube). Finally, 1 U of human topoisomerase (1 μl of 1 U μl^−1 stock) is added to each tube for a final volume of 20 μl. The tubes are then incubated at 37 °C for 30 min. Reactions are stopped by the addition of 20 μl of 24:1 chloroform:isoamyl alcohol and 20 μl of stop dye (40% sucrose, 1 mM EDTA, 100 mM Tris-HCl pH 7.5, 0.5 μg ml^−1 bromophenol blue). Samples were run on 1% agarose gels containing 0.5 μg ml^−1 ethidium bromide for 1 h at 110 V or until the dye front was approximately halfway down the gel. Gels were imaged on a Molecular Imager Gel Doc XR+ (Biorad).

[6] = In-vivo toxicity assessment, once daily for 10 days; parameters: species or system BALB/c mice; conditions: mice
Description: Toxicity was assessed as previously described. Specifically, heparinized whole blood was collected for assessment of total white blood cells, neutrophils, lymphocytes, haematocrit, platelets, creatinine, blood urea, nitrogen, albumin, alanine aminotransferase, alkaline phosphatase and total bilirubin. Mice were euthanized by overdosing with ketamine/xylazine and the heart, lung, kidney, liver, spleen, gastrointestinal tract and the brain were collected for histopathology. Tissue samples were fixed 24 h in 10% neutral buffered formalin, processed and paraffin embedded, sectioned (5 μm thickness) and stained with haematoxylin and eosin. All slides were systematically evaluated by a single board-certified veterinary anatomic pathologist (SL) for evidence of acute or chronic inflammation and toxicity. All lesions were characterized, recorded and scored for severity (minimal=1, mild=2, moderate=3, marked=4, and severe=5).

[7] = system: Herring Sperm DNA; assay: Intercalation assay (ethidium bromide displacement); type: binding
Description: Intercalation assays were performed as previously described. The ability of DNM-2 to intercalate into DNA was measured by an ethidium bromide displacement assay. Herring Sperm DNA (34 μg ml^−1 final) was premixed with buffer containing ethidium bromide (50 mM Tris base, 100 mM NaCl, 1 mM EDTA, 5 μM EtBr pH 7.5). Ninety-five microlitres of this solution was added to a 96-well plate containing 5 μl of DMSO solutions of compounds. […] Doxorubicin was used as a positive control. The reactions were allowed to incubate for 30 min. Fluorescence was then read on a Gemini microplate reader (Molecular Devices, excitation=545 nm, emission=595 nm).

[8] = 50 mg kg-1 oral gavage once daily for 10 days
[9] = 50 mg kg^−1 oral gavage once daily for 10 days

For Cc1cc(=O)n(C)c2c3c4c(cc12)c(C)cc(=O)n4CO3 [DNM, deoxynybomycin], the “MIC against S. aureus NRS3” value [1] is listed as 0.03 µg/mL (≈ 0.106 µM), the MIC ([1]; Staphylococcus aureus, read-out: MIC against S. aureus NRS3) is listed as 0.03 µg/mL (≈ 0.106 µM) and the “toxicity to normal (non-cancerous) cell lines” value [2] is listed as “non-toxic”. The “concentration giving significant buildup of OC DNA (P<0.05)” value [3] was 0.17 µM and the haemolysis [4] was “none of these compounds induce haemolysis”.

With CCn1c(=O)cc(C)c2cc3c(C)cc(=O)n4c3c(c21)OC4 [DNM-2] the “concentration inhibiting human topoisomerase II” value [5] was > 30 µM, the ALP [6, 8] was 60 ± 10 U/L and the ALT [6, 8] was 36 ± 1 U/L. For the same molecule, the Albumin [6, 8] was 3.2 ± 0.1 g/dL, the “BUN (Urea)” value [6, 8] was 32.0 ± 0.4 mg/dL and the Creatine [6, 8] was 0.2 ± 0.0 mg/dL. For the same molecule, the Globulin [6, 8] was 2.62 ± 0.05 g/dL, the Hematocrit [6, 8] was 40 ± 1% and the Hemoglobin [6, 8] was 14.2 ± 0.3 g/dL. For the same molecule, the Lymphocyte [6, 8] was 81 ± 3 % of WBC, the “Mean Cell Volume” value [6, 8] was 47.3 ± 0.4 fL and the Neutrophil [6, 8] was 18 ± 3 % of WBC. The RBC [6, 8] was 8.5 ± 0.2 X106/µL, the WBC [6, 8] was 3800 ± 300 cells/µL and the Platelet ([6]; 50 mg kg-1 oral gavage once daily for 10 days, counts low because of platelet clumps) was 60,000 ± 10,000 cells/µL. For the same molecule, the “Total Bilirubin” value ([6]; 50 mg kg-1 oral gavage once daily for 10 days, increased also in vehicle due to hemolysis during blood collection) was 0.7 ± 0.1 mg/dL, the “adipocytes and triglyceride levels” value [6, 9] was “Increased vacuolation of white and brown adipocytes with a minimal increase in triglyceride levels” and the “haematological and non-haematological toxicity markers” value [6, 9] was “No clinically significant evidence for myelosuppression, renal injury or hepatic toxicity was identified”. The “histopathology of kidney, brain, lung, liver, spleen, heart and stomach” value [6, 9] was “did not reveal any evidence of toxicity”, the “histopathology of small intestine sections” value [6, 9] was “mild intestinal dilation associated with villi atrophy” and the “concentration with significant DNA intercalation” value [7] was > 30 µM.
